According to patent publication US20130172294A1, “Treatment with VB-201” (Vascular Biogenics Ltd., priority 2010, published 2013):
Entries after “also recorded” stand apart in the source; their conditions may differ. Where two headings read alike, the source gives them in different places.

Tests used:
[1] = Safety and tolerability of repeated doses 40 and 80 mg (Example 4); assay type: in vivo, human
Source text: Safety and tolerability of VB-201 was judged by evaluating the incidence of abnormal findings in the following measurements: vital signs: systolic and diastolic blood pressure, heart rate, respiratory rate, body temperature; physical examination; 12-lead electrocardiogram; laboratory tests of blood samples for: complete blood count, prothrombin time/partial thromboplastin time, LDL- and HDL-cholesterol, total cholesterol, triglycerides, glucose, blood urea nitrogen, sodium, potassium, creatinine, calcium, phosphorus, creatinine phosphokinase, lactate dehydrogenase, aspartate transaminase, alanine transaminase, γ-glutamyl transferase, alkaline phosphatase, protein, albumin, total bilirubin, total IgM and IgG antibodies, interleukin-12/23 p40, tumor necrosis factor-α, and interleukin-6, as well as routine urinalysis; and all adverse events, whether or not considered serious, and whether or not considered related to the investigational agent, according to the criteria for Good Clinical Practice. Treatment-emergent adverse events were defined as any adverse event that started on or after administration of the first dose of VB-201, and no more than 30 days after administration of the last dose, or are ongoing at the time of the first dose and worsened in severity or frequency during treatment. […] The subjects were all healthy volunteers. […] 6 subjects received a placebo. […]

[2] = test system: interferon-γ (IFN-γ)
Protocol: Plasma levels of interleukin-23 (IL-23) and interferon-γ (IFN-γ) were determined using the FlowCytomix human simplex kits (Bender Medsystems) for the aforementioned cytokines according to the manufacturer instructions. Acquisition of samples was performed using FacsCalibur (Becton Dickinson). Results were analyzed with the FlowCytomix Pro 2.2 Software.
Healthy subjects were treated once a day with 40 mg or 80 mg of VB-201, according to the procedures described in Example 4. Plasma was collected on day 0 (pre-dosing), on day 14 after dosing, and on day 28 after dosing (when administration lasted 28 days). Plasma levels of interleukin-23 (IL-23) and interferon-γ (IFN-γ) were determined as described hereinabove.

[3] = test system: Human monocytes (CD14+ cells)
Protocol: Human monocytes (CD14^+ cells) were isolated from whole blood of healthy donors. Following PBMC (peripheral blood mononuclear cell) separation from whole blood using Ficoll-Paque and leucosep tubes, CD14^+ cells were separated using specific CD14 micro beads (Miltenyi Biotech). Purity of the CD14^+ population was validated using specific monoclonal CD14 antibody by FACS analysis. For chemoattractant, RANTES (100 ng/ml), MIP-1α (macrophage inflammatory protein-1a; 50 ng/ml), MCP-1 (monocyte chemotactic protein-1; 50 ng/ml) or MCP-3 (50 ng/ml) were dissolved in 2% fetal bovine serum/RPMI-1640 and placed at the lower chamber of QCM™ 24-well migration assay plate (Corning-Costar). CD14+ cells were pre-incubated for 30 minutes with solvent (1% ethanol/PBS) or VB-201 at 8 μM (or different concentrations ranging between 1.7-17 μM, not shown). Migration assay was conducted by seeding 300,000 treated cells in the upper chamber, followed by incubated for 3-4 hours, after which the number of migrated cells was determined by FACS (fluorescence activated cell sorting).
VB-201 was tested in vitro as described hereinabove for possible effects on migration of human primary monocytes towards inflammatory chemokines using a trans-well assay. For a broad analysis, several chemoattractants which serve as ligands for different chemokine receptors were used. Two assays were performed in triplicates for each chemoattractant.

CCCCCCCCCCCCCCCCOCC(COP(=O)([O-])OCC[N+](C)(C)C)OCCCCC(=O)O (stereo not drawn) [VB-201, 1-hexadecyl-2-(4′-carboxybutyl)-glycerol-3-phosphocholine]
serious adverse events ([1]; daily 40 or 80 mg, 14 or 28 day cohorts): No serious adverse events were reported | safety and tolerability ([1]; daily doses of up to 80 mg for up to 28 days): both safe and well-tolerated; also recorded: well-tolerated by subjects, and no substantial toxicity was observed | IFN-γ plasma levels ([2]; 40 mg per day, 14 days, one subject (second had no detectable levels)): considerably reduced | IFN-γ plasma levels ([2]; 80 mg per day, 28 days, two subjects (third had no detectable levels)): considerably reduced | migration of human primary monocytes towards MCP-1 ([3]; 8 μM VB-201, 30 min pre-treatment, MCP-1 50 ng/ml): significantly (P<0.05) reduced | migration of human primary monocytes towards MCP-3 ([3]; 8 μM VB-201, 30 min pre-treatment, MCP-3 50 ng/ml): significantly (P<0.05) reduced | migration of human primary monocytes towards MIP-1α ([3]; 8 μM VB-201, 30 min pre-treatment, MIP-1α 50 ng/ml): significantly (P<0.05) reduced | migration of human primary monocytes towards RANTES ([3]; 8 μM VB-201, 30 min pre-treatment, RANTES 100 ng/ml): significantly (P<0.05) reduced | dose dependence of inhibition of monocyte migration ([3]; in vitro, 1.7-17 μM): dose-dependent
